Measurements: patent US10017492B2 (KANGPU BIOPHARMACEUTICALS, LTD., priority 2014, dated 2018)

Experiments:
TNF-α = TNF-α activity inhibiting assay (LPS-stimulated peripheral blood, ELISA); format: cell-based, human; conditions: Homo sapiens, compound 100 nM, diluted peripheral blood of healthy volunteers, LPS 10 ng/mL, 6 hours, read-out: Inhibitory Rate on TNF-α (%)
Procedure: TNF-α Activity Inhibiting Assay
Peripheral blood from healthy volunteers was collected and collected with EDTA anticoagulant tubes. After being diluted 5-fold with 1640 medium (Gibco, catalog number 11875-093, USA), the blood was added to 96-well cell culture plates (Costar, catalog number 3599, USA) and then treated with 10 μL solution of the compound of general formula (I) of the present invention in DMSO (Sigma, catalog number D2650, USA). The final concentration of the compound was 100 nM, and the final concentration of DMSO was 0.2%. After incubation for 60 minutes in an incubator at 37° C. under 5% CO2, 10 μL LPS (Sigma, catalog number L-2880, USA) was added to the reaction system, and the final concentration was 10 ng/mL. After further culturing for 6 hours in the incubator at 37° C. under 5% CO2, the supernatant was collected. The content of TNF-α was determined by ELISA (BD Biosciences, catalog number 555212, USA). Absorbance was detected at OD450 nm with a microplate reader, with OD 650 nm as reference. The control, a solution containing 0.2% DMSO medium, was as 0% inhibition. Raw data and standard curves were recorded. The four-parameter drug inhibition curve was plotted by XL-fit software and the inhibition rate of each compound was calculated, as shown in Table 1.

[1] = tested on: MM.1S cells (myeloma cells); test: Cell proliferation assay (MTS), MM.1S myeloma cells; format: cell-based; conditions: Homo sapiens, MM1.S, 72 hours, read-out: IC50 values of MMIS Inhibition
Procedure: MM.1S cells (myeloma cells) (ATCC, catalog number CRL-2974) were seeded at 1.8×10^3 per well to a 96-well culture plate containing […] (Gibco, catalog number A10491-01), and were incubated in an incubator for 24 hours at 37° C. under 5% CO2. Compounds were prepared as 20 mM stock solutions with DMSO (Sigma, catalog number D2650), and were diluted with the medium to the desired concentration (the final concentration of DMSO was 0.5%) and then were added to each well, incubated in an incubator for 72 hours at 37° C. under 5% CO2. Then, 20 μL MTS (Promega, catalog number G3581) was added to each well, and further incubated for 1-4 hours in an incubator at 37° C. under 5% CO2. OD490 nm was detected with OD650 nm as reference. The control, a solution containing 0.5% DMSO medium, was as 0% inhibition. GraphPad Prism 5 was used, slope was allowed to change to make the dose-effect curve and IC50 values were calculated, shown in table 2 for details.

IC50 [1] [nM]	SMILES	inhibition at 0.1 µM (TNF-α) [%]
≥ 300	O=C1CCC(N2Cc3c(NCc4ccc(O)cc4F)cccc3C2=O)C(=O)N1 (stereo not shown) [Compound A396, 3-(4-((2-fluoro-4-hydroxybenzyl)amino)-1-oxoisoindolin-2-yl)piperidine-2,6-dione]	< 50
< 300	[2H][C@]1(N2Cc3c(OCc4cccc(OC)c4F)cccc3C2=O)CCC(=O)NC1=O [Compound A380, (S)-3-deuterium-3-(4-((2-fluoro-3-methoxybenzyl)oxy)-1-oxoisoindolin-2-yl)piperidine-2,6-dione]	< 50
< 300	Cc1cccc(CNc2cccc3c2CN(C2CCC(=O)NC2=O)C3=O)c1F (stereo not shown) [Compound A367, 3-(4-((2-fluoro-3-methylbenzyl)amino)-1-oxoisoindolin-2-yl)piperidine-2,6-dione]	≥ 50
< 300	COc1ccc(CNc2cccc3c2CN(C2CCC(=O)NC2=O)C3=O)cc1Cl (stereo not shown) [Compound A354, 3-(4-((3-chloro-4-methoxybenzyl)amino)-1-oxoisoindolin-2-yl)piperidine-2,6-dione]	< 50
≥ 300	O=C1CCC(N2Cc3c(NCc4cc(OCCO)ccc4F)cccc3C2=O)C(=O)N1 (stereo not shown) [Compound A375, 3-(4-((2-fluoro-5-(2-hydroxyethoxy)benzyl)amino)-1-oxoisoindolin-2-yl)piperidine-2,6-dione]	< 50
< 300	COc1ccc(F)c(CNc2cccc3c2CN([C@@H]2CCC(=O)NC2=O)C3=O)c1 [Compound A341, (R)-3-(4-((2-fluoro-5-methoxybenzyl)amino)-1-oxoisoindolin-2-yl)piperidine-2,6-dione]	< 50
< 300	[2H][C@@]1(N2Cc3c(OCc4ccc(OC)cc4F)cccc3C2=O)CCC(=O)NC1=O [Compound A392, (R)-3-deuterium-3-(4-((2-fluoro-4-methoxybenzyl)oxy)-1-oxoisoindolin-2-yl)piperidine-2,6-dione]	≥ 50
< 300	O=C1CCC(N2Cc3c(OCc4cc(CN5CCOCC5)ccc4F)cccc3C2=O)C(=O)N1 (stereo not shown) [Compound A398, 3-(4-((2-fluoro-5-(morpholinomethyl)benzyl)oxy)-1-oxoisoindolin-2-yl)-piperidine-2,6-dione]	≥ 50
< 300	CNc1cccc(COc2cccc3c2CN(C2CCC(=O)NC2=O)C3=O)c1F (stereo not shown) [Compound A385, 3-(4-((2-fluoro-3-(methylamino)benzyl)oxy)-1-oxoisoindolin-2-yl)piperidine-2,6-dione]	≥ 50
< 300	[2H][C@]1(N2Cc3c(OCc4ccc(OC)cc4F)cccc3C2=O)CCC(=O)NC1=O [Compound A393, (S)-3-deuterium-3-(4-((2-fluoro-4-methoxybenzyl)oxy)-1-oxoisoindolin-2-yl)piperidine-2,6-dione]	< 50
≥ 300	COc1cccc(CNc2cc(F)cc3c2CN(C2CCC(=O)NC2=O)C3=O)c1F (stereo not shown) [Compound A318, 3-(6-fluoro-4-((2-fluoro-3-methoxybenzyl)amino)-1-oxoisoindolin-2-yl)-piperidine-2,6-dione]	< 50
< 300	[2H][C@]1(N2Cc3c(OCc4cc(OC)ccc4F)cccc3C2=O)CCC(=O)NC1=O [Compound A379, (S)-3-deuterium-3-(4-((2-fluoro-5-methoxybenzyl)oxy)-1-oxoisoindolin-2-yl)piperidine-2,6-dione]	< 50
< 300	CC(=O)Nc1cccc(CNc2cccc3c2CN(C2CCC(=O)NC2=O)C3=O)c1F (stereo not shown) [Compound A388, N-(3-(((2-(2,6-dioxopiperidin-3-yl)-1-oxoisoindolin-4-yl)amino)methyl)-2-fluorophenyl)acetamide]	≥ 50

SMILES	IC50 [1] [nM]	inhibition at 0.1 µM (TNF-α) [%]
CN(C)C(=O)Oc1ccc(F)c(CNc2cccc3c2CN(C2CCC(=O)NC2=O)C3=O)c1 (stereo not shown) [Compound A378, 3-(((2-(2,6-dioxopiperidin-3-yl)-1-oxoisoindolin-4-yl)amino)methyl)-4-fluorophenyl dimethylcarbamate]	≥ 300	< 50
